Here are results for 5 compounds from paper PMC6456241 (Preventive Nutrition and Food Science, 2018).

The IC50 is the midpoint of a concentration-inhibition curve.

Experiment [1] deals with α-Glucosidase (EC 3.2.1.20). Nature of the experiment: Assay of α-glucosidase. In kind it is biochemical. To be noted: read-out: Inhibition (IC50) α-Glucosidase; isolated compounds; pNPG substrate, pH 6.8, 37°C; mean±SD of triplicate.
For experiment [2], the target named is mushroom tyrosinase (EC 1.14.18.1) (Agaricus bisporus, UniProt C7FF04). Nature of the experiment: Assay of tyrosinase. It is filed as biochemical.
Chain of mushroom tyrosinase (EC 1.14.18.1) (C7FF04 1-392 limits assumed): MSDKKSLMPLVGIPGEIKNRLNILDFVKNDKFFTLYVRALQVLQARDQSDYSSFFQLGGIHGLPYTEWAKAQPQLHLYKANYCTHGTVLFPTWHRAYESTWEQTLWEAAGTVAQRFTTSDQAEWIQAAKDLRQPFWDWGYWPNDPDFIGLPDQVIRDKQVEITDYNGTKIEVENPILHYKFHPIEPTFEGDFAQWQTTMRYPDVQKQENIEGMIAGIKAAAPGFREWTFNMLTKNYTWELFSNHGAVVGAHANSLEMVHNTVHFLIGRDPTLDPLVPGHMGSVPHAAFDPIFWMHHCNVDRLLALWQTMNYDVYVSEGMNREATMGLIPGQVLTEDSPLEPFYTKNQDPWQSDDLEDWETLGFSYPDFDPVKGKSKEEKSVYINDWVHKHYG

Take `CC(C)=CCc1c(O)ccc(C(=O)[C@H]2[C@@H](c3c(O)cc(-c4cc5ccc(O)cc5o4)cc3O)C=C(C)C[C@@H]2c2ccc(O)cc2O)c1O` [CMC, chalcomoracin]: the results for the IC50 in experiment [1] and in experiment [2] were 6 ± 0.46 µM and 5.61 ± 0.2 µM, respectively.

Consider `CC(C)=CCc1c(O)cc(-c2cc3ccc(O)cc3o2)cc1O` [MCC, moracin C], for which the IC50 in experiment [1] was determined as 88.8 ± 1.32 µM; in experiment [2] it was 37.9 ± 0.42 µM.

Regarding `Oc1cc(O)cc(-c2cc3ccc(O)cc3o2)c1` [MCM, moracin M], the IC50 was 168 ± 2.44 µM in experiment [1] and 17.2 ± 0.37 µM in experiment [2].

`CC(C)=CCc1cc2cc(-c3cc(O)cc(O)c3)oc2cc1O` [MCN, moracin N]: the values for the IC50 in experiment [1] and in experiment [2] were 59.4 ± 2 µM and 10.16 ± 0.03 µM, respectively.

Consider `Oc1cc(O)cc(/C=C/c2ccc(O)cc2O)c1` [ORT, oxyresveratrol], for which the results for the IC50 in experiment [1] and in experiment [2] were 273 ± 13.2 µM and 0.57 ± 0.04 µM, respectively.
